These results are taken from patent US8349827B2, “Substituted dipyrido-pyrimido-diazepine and benzo-pyrido-pyrimido compounds” (ArQule, Inc., priority 2009, dated 2013).

One assay relates to MDA-MB-231. Description: MTS assay, MDA-MB-231 cells. The format is cell-based. The note with it: Homo sapiens, 72 hours. The method, then:
(§1) Cells were maintained at 37° C., 5% CO2 in DMEM media supplemented with 1% fetal bovine serum, penicillin/streptomycin and fungizone (Invitrogen). Cells were seeded into 96-well tissue culture plates at 3000 per well and cultured at 37° C. for 18 hours. Test compounds were dissolved and diluted to 300× in DMSO then diluted 1:40 in DMEM. Cells were incubated with test compounds for 72 hours followed by incubation with tetrazolium compound (3-(4,5-dimethylthiazol-2-yl)-5-(3-carboxymethoxyphenyl)-2-(4-sulfophenyl)-2H-tetrazolium, inner salt; MTS) and the electron coupling reagent, phenazine methosulfate (PMS) for 4 hours. […] The ability of compounds to inhibit cell growth in this assay is correlated with the reduction of dehydrogenase enzyme activity found in metabolically active cells. The measurement of the absorbance of the formazan was assessed using an ENVISION™ (Perkin Elmer) microplate reader at 492 nm. The calculated IC50 value is the concentration of the test compound that causes a 50% decrease in the absorbance.

In the next assay the test system is NCI-H1299. In words: MTS assay, NCI-H1299 cells. The note with it: Homo sapiens, 72 hours. The format is cell-based. How it is done: as §1
For a further assay, the system named is DLD-1. Description: MTS assay, DLD-1 cells. The assay is classed as cell-based. The conditions noted are these: Homo sapiens, 72 hours. How it is done:
as §1

A further assay concerns KATO III. In words: MTS assay, KATO III cells. The assay is classed as cell-based. The note with it: Homo sapiens, 72 hours. How it is done: as §1
On the technique in general: Tetrazolium assays rely on reduction of a dye to a coloured formazan, in cell work by metabolically active cells.

A further assay concerns PC-3. In words: MTS assay, PC-3 cells. The format is cell-based. The conditions noted are these: Homo sapiens, 72 hours. How it is done: as §1
The test system of another assay is PACA-2. Description: MTS assay, PACA-2 cells. The conditions noted are these: 72 hours. The format is cell-based. The method, then: as §1
In a further assay the target is ABL T315I (Homo sapiens, UniProt P00519, T315I). In words: ABL Kinase Activity Assay (Elisa), ABL T315I. The assay is classed as biochemical. The conditions noted are these: ATP 100 μM, read-out: Abl(T315I) Enzymetic assay (Elisa) % inhibition. How it is done: (§2) ABL Kinase Activity Assay
(§3) The disclosed compounds were assayed for their ability to inhibit the activity of ABL kinase. Nunc Maxisorb plates were coated with streptavidin by overnight incubation with 100 μL per well of 1 μg/ml streptavidin in DPBS. Prior to the experiment, the plates were washed with TBST (3×200 μL) and blocked for at least 3 hours by adding 150 μL of 5% BSA/TBST. The plates were washed with TBST (3×200 μL/well) and left dry immediately before the capture step.
(§4) The disclosed test compounds and controls (Gleevec) were prepared using the following assay buffer@10× desired final concentration (50 mM Tris pH 7.0, 0.02 mg/ml BSA, 10 mM MgCl2, 0.1 mM Na3VO4, 1 mM EGTA, 0.01% NP-40, 1 mM DTT in 10% glycerol/water). In a reaction plate, 5 μl test article (or control) and 30 μl ABL or ABL T315I (0.089 nM final concentration, in the above buffer) were added rapidly. The plate was incubated for 20 minutes. To the reaction plate was added ATP (100 μM final concentration) and AblTide (128 nM final concentration) in a volume of 15 μl. The plate was incubated at room temperature for one hour.
(§5) From the reaction plate, 40 μl was transferred to the streptavidin coated plate. The capture plate was incubated at room temperature for 30 minutes, then washed 3× with TBST. To the capture plate was added 100 μL/well of cell signaling anti-phospho tyrosine at a dilution of 1:3000 in 2% BSA/TBST. The plate was incubated for two hours at room temperature then washed 3× with TBST. To the capture plate was added 100 μL/well of alkaline phosphatase tagged goat anti mouse antibody at a dilution of 1:4000 in 2% BSA/TBST. The plate was incubated for one hour at room temperature then washed 3× with TBST.
(§6) The fluorescent readout was initiated by the addition of 100 μl/well of Attophos reagent (6 mg/10 mL). The reading was done on the Perkin Elmer Envision system.

In another assay the target is ABL (Homo sapiens, UniProt P00519). Description: ABL Kinase Activity Assay (Elisa), ABL. The format is biochemical. The conditions noted are these: ATP 100 μM, read-out: Abl Enzymetic assay (Elisa) % inhibition. The method, then:
as §2, §3, §4, §5, §6

Bounds are passed on as bounds.

As usually defined, the inhibition is the percentage by which the read-out fell short of the control. `Clc1cccc(CNc2ncc3c(n2)-c2cccnc2Nc2ccccc2-3)c1` [Example 61, N-(3-chlorobenzyl)-9H-pyrido[2,3-b]pyrimido[4,5-d][1]benzazepin-2-amine]: the inhibition at 10 µM in the assay with MDA-MB-231, with NCI-H1299, with DLD-1, in the assay on KATO III and in the assay with PC-3 was less than 50% each time.
With `CC(=O)N1CCN(c2ncc3c(n2)-c2cccnc2Nc2ccccc2-3)CC1` [Example 68, 2-(4-acetylpiperazin-1-yl)-9H-pyrido[2 ,3-b]pyrimido[4,5-d][1]benzazepine], the inhibition at 10 µM is 80 to 100% in the assay on MDA-MB-231; 50 to 79% in the assay with NCI-H1299; 80 to 100% with DLD-1; 80 to 100% in the assay with PACA-2; 80 to 100% in the assay on KATO III; 80 to 100% with PC-3.
Regarding `CC(=O)N1CCN(c2ncc3c(n2)-c2cccnc2Nc2cnccc2-3)CC1` [Example 57, 2-(4-acetylpiperazin-1-yl)-9H-dipyrido[2,3-b:4′,3′-f]pyrimido[4,5-d]azepine], the inhibition at 10 µM in the assay with MDA-MB-231, with NCI-H1299, with DLD-1, with PACA-2, with KATO III and in the assay with PC-3 was 80 to 100% in each case.
For `c1ccc(CNc2ncc3c(n2)-c2cccnc2Nc2cnccc2-3)nc1` [Example 49, N-(pyridin-2-ylmethyl)-9H-dipyrido[2,3-b:4′,3′-f]pyrimido[4,5-d]azepin-2-amine], the inhibition at 10 µM in the assay with MDA-MB-231, in the assay on NCI-H1299, in the assay with DLD-1, in the assay on PACA-2, in the assay on KATO III and in the assay on PC-3 was 80 to 100% throughout.
As to `COc1cccc(CNc2ncc3c(n2)-c2cccnc2Nc2cnccc2-3)c1` [Example 32, N-(3-methoxybenzyl)-9H-dipyrido[2,3-b:4′,3′-f]pyrimido[4,5-d]azepin-2-amine], the inhibition at 10 µM in the assay with MDA-MB-231 is less than 50%; with NCI-H1299, 50 to 79%; with DLD-1 it was 50 to 79%; on ABL T315I, 80 to 100%; with PACA-2, less than 50%; at ABL it was 80 to 100%. The compound also registered an inhibition at 10 µM in the assay on KATO III of less than 50%.
As for `Fc1ccccc1CNc1ncc2c(n1)-c1cccnc1Nc1cnccc1-2` [Example 20, N-(2-fluorobenzyl)-9H-dipyrido[2,3-b:4′,3′-f]pyrimido[4,5-d]azepin-2-amine], the inhibition at 10 µM is less than 50% with MDA-MB-231; less than 50% in the assay on NCI-H1299; less than 50% in the assay with DLD-1; 80 to 100% on ABL T315I; less than 50% in the assay on PACA-2; 80 to 100% at ABL. The compound also had an inhibition at 10 µM in the assay on KATO III of less than 50%.
As to `COc1ccc(CNc2ncc3c(n2)-c2cccnc2Nc2cnccc2-3)cc1OC` [Example 47, N-(3,4-dimethoxybenzyl)-9H-dipyrido[2,3-b:4′,3′-f]pyrimido[4,5-d]azepin-2-amine], the inhibition at 10 µM was less than 50% with MDA-MB-231; 50 to 79% in the assay on NCI-H1299; 50 to 79% with DLD-1; 80 to 100% on ABL T315I; less than 50% in the assay with PACA-2; 80 to 100% at ABL. In addition, the inhibition at 10 µM in the assay with KATO III is less than 50%.
Regarding `CC(C)(C)C(=O)N1CCN(c2ncc3c(n2)-c2cccnc2Nc2cnccc2-3)CC1` [Example 58, 2-[4-(2,2-dimethylpropanoyl)piperazin-1-yl]-9H-dipyrido[2,3-b:4′,3′-f]pyrimido[4,5-d]azepine], the inhibition at 10 µM was less than 50% in the assay on MDA-MB-231; 80 to 100% in the assay on DLD-1; 80 to 100% in the assay on PACA-2; 50 to 79% in the assay on KATO III; 50 to 79% in the assay on PC-3.
